Results as given in ChEMBL document CHEMBL3044746, “Molecular modeling and pharmacophore approach for structural requirements of some 2-substituted-1-naphthols derivatives as potent 5-lipoxygenase inhibitors” (Med Chem Res, 2013).

Biological target: T1, Polyunsaturated fatty acid 5-lipoxygenase (Rattus norvegicus, UniProt P12527)
T1 sequence (P12527 whole entry): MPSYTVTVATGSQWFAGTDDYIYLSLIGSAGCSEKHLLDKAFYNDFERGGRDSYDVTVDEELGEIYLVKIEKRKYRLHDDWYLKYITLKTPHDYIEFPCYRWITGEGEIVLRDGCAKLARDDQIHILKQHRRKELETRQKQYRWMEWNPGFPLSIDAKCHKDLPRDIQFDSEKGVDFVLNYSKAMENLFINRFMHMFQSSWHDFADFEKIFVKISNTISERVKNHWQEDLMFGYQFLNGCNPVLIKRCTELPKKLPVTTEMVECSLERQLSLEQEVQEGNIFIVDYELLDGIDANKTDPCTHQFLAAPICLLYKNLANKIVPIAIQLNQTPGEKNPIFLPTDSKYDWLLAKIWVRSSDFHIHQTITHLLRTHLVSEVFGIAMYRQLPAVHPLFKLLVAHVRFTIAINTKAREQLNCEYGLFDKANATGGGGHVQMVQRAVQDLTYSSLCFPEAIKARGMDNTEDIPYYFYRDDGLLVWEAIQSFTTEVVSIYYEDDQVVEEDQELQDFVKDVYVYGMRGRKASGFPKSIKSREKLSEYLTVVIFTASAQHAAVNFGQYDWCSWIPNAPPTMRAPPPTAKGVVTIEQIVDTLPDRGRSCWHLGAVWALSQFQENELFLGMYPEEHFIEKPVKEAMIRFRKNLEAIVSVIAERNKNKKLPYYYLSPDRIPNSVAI
Test: Inhibition of 5-lipoxygenase in Rattus norvegicus Rat basophil leukemia cells (RBL) cells

| IC50 [nM] | SMILES |
| --- | --- |
| 57 | CCOc1ccccc1Cc1ccc2ccccc2c1O |
| 160 | O=C(Oc1ccccc1)c1cc(Cc2ccccc2)c(O)c2ccccc12 |
| 180 | CCc1ccc2ccccc2c1O |
| 160 | Oc1c(/C=C/c2ccccc2)ccc2ccccc12 |
